{"source": "patent US9034857B2", "about": "(Health Research, Inc., priority 2010, dated 2015)", "note": "“Also recorded” adds a separate entry of the source."}
{"test_system": "intracellular O2- in stationary phase budding yeast cells", "assay": "High throughput flow cytometry DHE screen for reduction of superoxide in stationary phase budding yeast", "type": "cell-based, S. cerevisiae", "conditions": "not given"}
{"smiles": "Nc1nc[nH]n1", "note": "[3-aminotriazol, reference compound]", "decrease in superoxide signals (control compound)": "more robust and reproducible decrease in superoxide signals"}
{"smiles": "Nc1cc2nc3ccccc3nc2cc1N", "note": "[MLS001044416, phenazine-2,3-diamine]", "dose dependency in re-screening (reduction of superoxide, DHE)": "identified by dose dependency; also recorded: exhibited dose dependency"}
{"smiles": "C[C@]12CCC3C(CC[C@H]4C[C@@H](O)CC[C@]34C)[C@H]1CC[C@H]2O", "note": "(stereo partly drawn) [MLS002554375, (3S,5S,10S,13S,14R,17R)-10,13-dimethyl-2,3,4,5,6,7,8,9,11,12,14,15,16,17-tetradecahydro-1H-cyclopenta[a]phenanthrene-3,17-diol]", "dose dependency in re-screening (reduction of superoxide, DHE)": "identified by dose dependency; also recorded: exhibited dose dependency"}
{"smiles": "O=c1cccc2[nH]c3ccccc3nc1-2", "note": "[MLS000737174, 5H-phenazin-1-one]", "dose dependency in re-screening (reduction of superoxide, DHE)": "identified by dose dependency; also recorded: exhibited dose dependency"}
{"smiles": "CNc1ccc2nc3ccccc3[n+](C)c2c1.[O-][Cl+3]([O-])([O-])[O-]", "note": "[MLS001164912, N,10-dimethylphenazin-10-ium-2-amine perchlorate]", "dose dependency in re-screening (reduction of superoxide, DHE)": "identified by dose dependency; also recorded: exhibited dose dependency"}
{"smiles": "C=C1[C@@H](O)[C@@H]2O[C@]3(CC[C@H](/C=C/[C@@H](C)[C@@H]4CC(C)=C[C@@]5(O[C@H](C[C@@](C)(O)C(=O)O)CC[C@H]5O)O4)O3)CC[C@H]2O[C@@H]1[C@@H](O)C[C@H](C)[C@H]1O[C@@]2(CCCCO2)CC[C@H]1C", "note": "[MLS002320508, (2R)-3-[(4S,10S)-4-[(E)-4-[(2S,2′R,4aS,6R,8aR)-4-hydroxy-2-[1-hydroxy-3-[(10S)-9-methyl-5,11-dioxaspiro[5.5]undecan-10-yl]butyl]-3-methylidenespiro[4a,7,8,8a-tetrahydro-4H-pyran[3,2-b]pyran-6,5′-oxolane]-2′-yl]but-3-en-2-yl]-7-hydroxy-2-methyl-5,11-dioxaspiro[5.5]undec-1-en-10-yl]-2-hydroxy-2-methylpropanoic acid]", "dose dependency in re-screening (reduction of superoxide, DHE)": "identified by dose dependency; also recorded: exhibited dose dependency"}
{"smiles": "C[C@]12CCC3C(CC[C@H]4C[C@H](O)CC[C@]34C)C1CCC2=O", "note": "(stereo partly drawn) [MLS002554454, (3R,5S,10S,13S)-3-hydroxy-10,13-dimethyl-1,2,3,4,5,6,7,8,9,11,12,14,15,16-tetradecahydrocyclopenta[a]phenanthren-17-one]", "dose dependency in re-screening (reduction of superoxide, DHE)": "identified by dose dependency; also recorded: exhibited dose dependency"}
{"smiles": "CC(C)(C)n1nc(-c2ccc(Cl)cc2)c2c(N)ncnc21", "note": "[MLS000326622, 1-tert-butyl-3-(4-chlorophenyl)pyrazolo[3,4-d]pyrimidin-4-amine]", "dose dependency in re-screening (reduction of superoxide, DHE)": "identified by dose dependency; also recorded: exhibited dose dependency"}
{"test_system": "intracellular O2- in stationary phase budding yeast cells", "assay": "High throughput flow cytometry DHE screen for reduction of superoxide in stationary phase budding yeast", "type": "cell-based, S. cerevisiae", "conditions": "dose response assays from 0.004 uM to 30 uM; 7 day incubation, 7% glucose"}
{"smiles": "COc1ccc2c3c(cccc13)N(C)N=C2C", "note": "[MLS000554700, 6-Methoxy-1,3-dimethyl-1H-benzo[de]cinnoline]", "dose dependency in re-screening (reduction of superoxide, DHE)": "identified by dose dependency; also recorded: exhibited dose dependency"}
{"smiles": "O=C(/C=C/c1ccccc1)NC(=S)NNC(=O)Cc1cccs1", "note": "[MLS000121367, (E)-3-phenyl-N—[[(2-thiophen-2-ylacetyl)amino]carbamothioyl]prop-2-enamide]", "dose dependency in re-screening (reduction of superoxide, DHE)": "identified by dose dependency; also recorded: exhibited dose dependency"}
{"smiles": "COc1ccc2nc3ccccc3nc2c1N", "note": "[MLS001044341, 2-methoxyphenazin-1-amine]", "dose dependency in re-screening (reduction of superoxide, DHE)": "identified by dose dependency; also recorded: exhibited dose dependency"}
{"smiles": "COc1ccc2nc3ccccc3nc2c1", "note": "[MLS001048992, 2-methoxyphenazine]", "dose dependency in re-screening (reduction of superoxide, DHE)": "identified by dose dependency; also recorded: exhibited dose dependency"}
{"smiles": "CNC(=O)c1cccc2nc3ccccc3nc12", "note": "[MLS001044346, N-methylphenazine-1-carboxamide]", "dose dependency in re-screening (reduction of superoxide, DHE)": "identified by dose dependency; also recorded: exhibited dose dependency"}
{"smiles": "CSc1nnc(-c2ccc([N+](=O)[O-])cc2)o1", "note": "[MLS000855890, 2-methylsulfanyl-5-(4-nitrophenyl)-1,3,4-oxadiazole]", "dose dependency in re-screening (reduction of superoxide, DHE)": "identified by dose dependency; also recorded: exhibited dose dependency"}
{"smiles": "C=CCSc1nnc(-c2ccc([N+](=O)[O-])cc2)o1", "note": "[MLS000662516, 2-(4-nitrophenyl)-5-prop-2-enylsulfanyl-1,3,4-oxadiazole]", "dose dependency in re-screening (reduction of superoxide, DHE)": "identified by dose dependency; also recorded: exhibited dose dependency"}
{"smiles": "c1ccc2nc3ccccc3nc2c1", "note": "[MLS000584128, phenazine]", "dose dependency in re-screening (reduction of superoxide, DHE)": "identified by dose dependency; also recorded: exhibited dose dependency"}
{"smiles": "O=C(c1cccc2nc3ccccc3nc12)N1CCOCC1", "note": "[MLS001044337, morpholin-4-yl(phenazin-1-yl)methanone]", "dose dependency in re-screening (reduction of superoxide, DHE)": "identified by dose dependency; also recorded: exhibited dose dependency"}
{"smiles": "COc1ccc2nc3ccccc3[n+]([O-])c2c1", "note": "[MLS002638803, 2-methoxy-10-oxidophenazin-10-ium]", "dose dependency in re-screening (reduction of superoxide, DHE)": "identified by dose dependency; also recorded: exhibited dose dependency"}
{"smiles": "COC(=O)c1cccc2nc3c(C(C)O)cccc3nc12", "note": "(centres unmarked) [MLS000863638, methyl 6-(1-hydroxyethyl)phenazine-1-carboxylate]", "dose dependency in re-screening (reduction of superoxide, DHE)": "identified by dose dependency; also recorded: exhibited dose dependency"}
{"smiles": "CCC(Nc1ccccc1O)=C1C(=O)CC(c2ccccc2)CC1=O", "note": "(centres unmarked) [MLS000779260, 2-[1-(2-hydroxyanilino)propylidene]-5-phenylcyclohexane-1,3-dione]", "dose dependency in re-screening (reduction of superoxide, DHE)": "identified by dose dependency; also recorded: exhibited dose dependency"}
{"smiles": "FC(F)(F)c1nc2cc3nc4ccccc4nc3cc2[nH]1", "note": "[MLS001049309, 2-(trifluoromethyl)-1H-imidazo[4,5-b]phenazine]", "dose dependency in re-screening (reduction of superoxide, DHE)": "identified by dose dependency; also recorded: exhibited dose dependency"}
{"smiles": "CC(C)(C)Nc1ncnc2c1cnn2-c1ccccc1", "note": "[MLS000100785, N-tert-butyl-1-phenylpyrazolo[3,4-d]pyrimidin-4-amine]", "dose dependency in re-screening (reduction of superoxide, DHE)": "identified by dose dependency; also recorded: exhibited dose dependency"}
{"smiles": "CC(C)(C)n1nc(-c2ccc(F)cc2)c2c(N)ncnc21", "note": "[MLS000326584, 1-tert-butyl-3-(4-fluorophenyl)pyrazolo[3,4-d]pyrimidin-4-amine]", "dose dependency in re-screening (reduction of superoxide, DHE)": "identified by dose dependency; also recorded: exhibited dose dependency"}
{"smiles": "O=c1ccc2[n+]([O-])c3ccccc3n(O)c-2c1", "note": "[MLS001208198, 10-hydroxy-5-oxidophenazin-5-ium-2-one]", "dose dependency in re-screening (reduction of superoxide, DHE)": "identified by dose dependency; also recorded: exhibited dose dependency"}
{"smiles": "C[C@]12CCC3C(CC[C@H]4C[C@H](O)CC[C@]34C)C1C[C@@H](CCCCl)[C@@H]2O", "note": "(stereo partly drawn) [MLS002554453, (3R,5S,10S,13S,16R,17S)-16-(3-chloropropyl)-10,13-dimethyl-2,3,4,5,6,7,8,9,11,12,14,15,16,17-tetradecahydro-1H-cyclopenta[a]phenanthrene-3,17-diol]", "dose dependency in re-screening (reduction of superoxide, DHE)": "identified by dose dependency; also recorded: exhibited dose dependency"}
{"smiles": "COc1ccc2nc3ccccc3nc2c1", "note": "[MLS000768124, 2-methoxyphenazine]", "dose dependency in re-screening (reduction of superoxide, DHE)": "identified by dose dependency; also recorded: exhibited dose dependency"}
{"smiles": "COc1ccc2c(c1)c1nnc(SC)nc1n2C", "note": "[MLS000033501, 8-methoxy-5-methyl-3-methylsulfanyl-[1,2,4]triazino[5,6-b]indole]", "dose dependency in re-screening (reduction of superoxide, DHE)": "identified by dose dependency; also recorded: exhibited dose dependency"}
{"smiles": "C#CCSc1nnc(-c2ccc([N+](=O)[O-])cc2)o1", "note": "[MLS000663774, 2-(4-nitrophenyl)-5-prop-2-ynylsulfanyl-1,3,4-oxadiazole]", "dose dependency in re-screening (reduction of superoxide, DHE)": "identified by dose dependency; also recorded: exhibited dose dependency"}
{"smiles": "CCN(CC)C(=O)c1ccc2nc3ccccc3nc2c1", "note": "[MLS000595212, N,N-diethylphenazine-2-carboxamide]", "dose dependency in re-screening (reduction of superoxide, DHE)": "identified by dose dependency; also recorded: exhibited dose dependency"}
{"smiles": "CC(C)OC(=O)c1ccc2nc3ccccc3nc2c1", "note": "[MLS001173415, propan-2-yl phenazine-2-carboxylate]", "dose dependency in re-screening (reduction of superoxide, DHE)": "identified by dose dependency; also recorded: exhibited dose dependency"}
{"smiles": "O=C(Nc1ccc2nc3ccccc3nc2c1)c1ccccc1", "note": "[MLS000418506, N-phenazin-2-ylbenzamide]", "dose dependency in re-screening (reduction of superoxide, DHE)": "identified by dose dependency; also recorded: exhibited dose dependency"}
{"smiles": "CC(=O)Nc1ccc2nc3ccccc3nc2c1", "note": "[MLS001044354, N-phenazin-2-ylacetamide]", "dose dependency in re-screening (reduction of superoxide, DHE)": "identified by dose dependency; also recorded: exhibited dose dependency"}
{"smiles": "CC(=NNc1ncnc2sc(C)c(C)c12)c1ccccn1", "note": "[MLS001176565, 5,6-dimethyl-N-(1-pyridin-2-ylethylideneamino)thieno[2,3-d]pyrimidin-4-amine]", "dose dependency in re-screening (reduction of superoxide, DHE)": "identified by dose dependency; also recorded: exhibited dose dependency"}
{"smiles": "COc1cccc2nc3cc(C)c(C)cc3nc12", "note": "[MLS000756830, 1-methoxy-7,8-dimethylphenazine]", "dose dependency in re-screening (reduction of superoxide, DHE)": "identified by dose dependency; also recorded: exhibited dose dependency"}
{"smiles": "OCC[n+]1c2ccccc2nc2ccc(N3CCOCC3)cc21", "note": "[MLS000768911, 2-(3-morpholin-4-ylphenazin-5-ium-5-yl)ethanolperchlorate]", "dose dependency in re-screening (reduction of superoxide, DHE)": "identified by dose dependency; also recorded: exhibited dose dependency"}
